Key:
Format in all cases: in vivo, mouse
[1] = system: brain of EAE mice; assay: Microarray, brain of EAE mice, effector phase (E), 24 h after treatment; ORY-2001 0.5 mg/kg, FTY720 1.0 mg/kg
Protocol: We evaluated differences in gene expression induced by the treatment using real-time PCR and by microarray hybridization analysis. First, total RNA was isolated from brain and spinal cord segments from EAE mice using Qiazol™ and the RNeasy MiniKit™ extraction kit (Qiagen). Evaluation of RNA quality was performed with the Agilent 2100 bioanalyzer and NanoDrop™ ND-1000 (Thermo Scientific, Dartford, Kent, UK). After DNAse I treatment, RNA (1 µg/sample) was reverse transcribed using RevertAid First strand cDNA Synthesis kit (Fermentas) and random hexamer primers. For evaluating the expression of the inflammatory markers TNFα, IL-1β, IP10, IL-4, and CCL5, real time PCR was performed by using iQ SYBR Green Supermix (Bio-Rad, Feldkirchen, Germany) according to manufacturer’s instructions in a BIORAD CFX96 thermal cycler. Primer sequences and PCR conditions are indicated in Supplementary Materials Table S3. […]
For the gene expression studies, data from microarray assays were normalized by modified nonlinear Q-splines normalization method and Log2(Sample/Vehicle) values calculated without background correction (which permits robust selection of differentially expressed genes yet may lead to sub-estimation of the magnitude of change for genes expressed near the detection limit). Differential expression was assessed with the proprietary Polyphemus software using robust statistics on the average technical replicates (3 replicates/gene oligo datapoint) after removing eventual outlier points (caused by dust or array imperfections). […] The p values were calculated after outlier elimination based on the absolute value of the regularized t-statistics, which uses a Bayesian framework to derive the algorithm, using internal replicated controls to assess the minimum technical variability of the process. Correlation between gene expression changes induced by different treatments was analysed by calculating the Pearson correlation coefficient r using the Log2(Treatment/Veh) values for all genes expressed above background level (n). […]

[2] = system: spleen cells of EAE mice; assay: EAE, autoreactive response of spleen cells from treated mice (proliferation, cytokines/chemokines); details: ORY-2001 0.5 mg/kg; for IFNγ and IL-4 in Con A-stimulated spleen cells: FTY720 1.0 mg/kg
Protocol: Spleen and draining lymph node (DLN) cells (10^6/mL) collected from EAE mice were stimulated in complete medium (RPMI 1640 containing 10% FBS, 50 µM 2-ME, 2 mM L-glutamine, 100 U/mL penicillin, and 100 µg/mL streptomycin) with 15 µM MOG35–55. After 48 h, cytokine (IL-4, TNF-alpha, IFN-gamma) and chemokine (IP-10 and MCP1) contents in culture supernatants were determined by sandwich ELISAs using capture/biotinylated detection Abs according to the manufacturer’s recommendations. The antibodies used are indicated in Supplementary Materials Table S4. Cell proliferation was evaluated after 72 h by adding 2.5 µCi/mL tritiated-thymidine during the last 8 h of culture and determining cpm incorporation in a Microbeta counter. We used T cell activation with an anti-CD3 […] antibody (1 µg/mL) or ConA (2.5 µg/mL) as controls of unspecific polyclonal stimulation.

[3] = system: spinal cord of EAE mice; assay: EAE, inflammatory mediators in spinal cord protein extracts (ELISA); details: ORY-2001 0.5 mg/kg; for IFNγ and IP-10 levels in spinal cord / IL-1β levels in spinal cord: disease peak, FTY720 1.0 mg/kg
From the text: For mechanistic studies in the EAE model, animals were divided into two groups, and samples were collected on day 26 post-immunization (sub-chronic phase), 3 days after the last dose, or on day 17 post-immunization for evaluating the effector phase. For this, mice were euthanized by intracardiac perfusion with saline (0.9%NaCl in H2O MilliQ) after pentobarbital anesthesia (Doletal), and blood samples, spleen, draining lymph nodes (DLNs: cervical, inguinal and axillary), brain, and spinal cord were removed. Serum samples were used for autoantibodies determination. Single-cell suspensions were obtained from spleen or pooled DLNs and used for the determination of cell number and auto-reactive and inflammatory responses, as described later. Brain and spinal segments of the cervical and lumbar regions were prepared separately and processed for RNA isolation, protein extraction, and histopathological analysis. Proteins were extracted from cervical and lumbar segments of spinal cord and brain from EAE mice via homogenization (50 mg tissue/mL) in lysis buffer (50 mM Tris-HCl, pH 7.4, 0.5 mM DTT, and 10 µg/mL proteinase inhibitors PMSF, pepstatin, and leupeptin). Samples were centrifuged (20.000× g, 15 min, 4 °C), and the supernatants were assayed for protein concentration (using Bradford method) and for cytokine/chemokine contents by using specific sandwich ELISAs according to manufacturer’s recommendations (BD Bioscience, Heidelberg, Germany and Peprotech, London, UK). In the TMEV model on day 86 after infection, mice were anesthetized and perfused transcardially, as described above. Spinal cords were obtained via extrusion with saline and prepared for further study.

Structure (SMILES) | expression of pituitary markers Gh, Prl, Pomc, Cga [1] | IP-10 and MCP-1 production induced by MOG35–55 ([2]; day 17) | MOG35–55-induced proliferation of spleen cells ([2]; day 17) | IFNγ and IL-4 in Con A-stimulated spleen cells ([2]; day 17) | TNF-alpha and MCP-1 levels, MOG35–55-specific recall response ([2]; day 26) | IFNγ, IL-17 and IP-10 levels, MOG35–55-specific recall response ([2]; day 26, ORY-LSD1 180 µg/kg) | IL-4 production by spleen cells ([2]; day 26, ORY-LSD1 180 µg/kg) | MOG35–55- and anti-CD3-stimulated proliferation of spleen lymphocytes ([2]; day 26, ORY-LSD1 180 µg/kg) | IFNγ, IL-17 and IP-10 levels in spinal cord ([3]; day 26, ORY-LSD1 180 µg/kg) | IL-4 levels in spinal cord ([3]; day 26, ORY-LSD1 180 µg/kg) | IFNγ and IP-10 levels in spinal cord [3] | IL-1β levels in spinal cord [3] | expression of Cox1 [1]
Nc1nnc(CN[C@@H]2C[C@H]2c2ccc(OCc3ccccc3)cc2)o1 [ORY-2001] | potently downregulated the pituitary markers Gh, Prl, Pomc, and Cga | significant increase in the production of the pro-inflammatory chemokines IP-10 and MCP-1 | significantly reduced the MOG35–55-induced proliferation of spleen cells | neither affected such cytokines (at the time of study) nor TNF-alpha | significantly reduced the levels of TNF-alpha and MCP-1 | produced equivalent levels of IFNγ, IL-17, and IP-10 | increased with both treatments | reduced MOG35–55 but not anti-CD3 -stimulated proliferation | no significant changes | significant increase in the levels of IL-4 | this decrease did not reach significance | significantly reduced the exacerbated levels of IL-1β | 
CCCCCCCCc1ccc(CCC(N)(CO)CO)cc1 [FTY720, Fingolimod, reference compound] | potently downregulated the pituitary markers Gh, Prl, Pomc, and Cga |  |  | reduced the levels of IFNγ and increased IL-4 release |  |  |  |  |  |  | this decrease did not reach significance | showed the same tendency | induction of Cox1
